In the assay the target is T1, human GPR84 receptor (Homo sapiens, UniProt Q9NQS5).
T1 construct: host or cells: HEK293, transient transfection
Nature of the assay: Gαi biosensor BRET assay in HEK293 cells (antagonism of ZQ-16). It is filed as cell-based. As to conditions: for inhibition at 10 µM: HEK293, single concentration 10 μM (designated F); for inhibition at 2 µM: HEK293, single concentration 2 μM (designated A); for IC50: HEK293 cells, antagonism of 200 nmol/L ZQ-16; for inhibition at 25 µM: HEK293, single concentration 25 μM (designated I). The text has this: Background—The following assays can be used for determination of GPR84 activation in living HEK293 cells. The Gai BRET biosensor (Gagnon et al., 2018; Gales et al., 2006. Nat StructMol Biol. 13, 778-86; Saulieres et al., 2012. Nat Chem Biol. 8, 622-30) allows to directly monitor GPR84-mediated activation of Gai. The Gai biosensor consists of a Rluc8-tagged Gαi2 subunit, a GFP10-tagged Gγ2 subunit, and an untagged Gβ1. Agonist stimulation and GPR84 activation triggers a physical separation between the RLuc8-Gαi donor and the GFP10-Gγ2 acceptor, resulting in a decrease in BRET signal whose amplitude is correlated to ligand efficacy (Gales et al., 2006). Moreover, signaling functions of GPCRs are tightly regulated by endocytosis, the targeting of receptors to endosomes and their sorting to lysosomes or recycling to the plasma membrane. The early endosomes (EEs) trafficking assay (Namkung et al., 2016. Nat Commun. 7, 12178) uses Rluc8-tagged GPR84 and Renilla GFP (rGFP) attached to the FYVE domain from human endofin/zinc finger FYVE domain-containing protein 16, which binds phosphatidylinositol 3-phosphate in EEs. Agonist stimulation of GPR84-Rluc8 leads to trafficking of the receptor to EEs, and ensuing increase of the donor concentration relative to the rGFP-FYVE acceptor anchored in the same cellular compartment, and thus results in an increase in BRET signal.
Plasmids—The cDNA clones for human GPR84 receptor, human Gai2, Gp1, and Gy2 were obtained from the cDNA Resource Center (www.cdna.org). GFP10 (F64L, S147P, S202F and H231L variant of Aequorea victoria Green Fluorescent Protein) gBlocks gene fragments (Integrated DNA Technologies, IA) and linker were inserted in frame at the N-terminus of human Gγ2. Rluc8 (A55T, C124A, S130A, K136R, A143M, M185V, M253L, and S287L variant of the Renilla renformis luciferase) gBlocks gene fragment was inserted with linkers in frame in between residues 91 and 92 of Gai2 or at the C-terminus of GPR84. The FYVE domain from human endofin (residues Q739 to K806) attached in frame at the C terminus of a humanized Renilla GFP (rGFP), were synthesized as gBlocks gene fragments.
Bioluminescence Resonance Energy Transfer (BRET) Measurement—HEK293 cells were transfected with GPR84-Rluc8 and rGFP-FYVE for the EEs trafficking biosensor or with GPR84, Gαi2-Rluc8, GFP10-Gγ2, and Gβ1 for the Gαi biosensor. The following day, transiently transfected cells were seeded in 96-well white clear bottom microplates coated with poly-D-lysine and left in culture for 24 hours. Cells were washed once with Tyrode's buffer (140 mmol/L NaCl, 1 mmol/L CaCl2, 2.7 mmol/L KCl, 0.49 mmol/L MgCl2, 0.37 mmol/L NaH2PO4, 5.6 mmol/L glucose, 12 mmol/L NaHCO3, and 25 mmol/L HEPES, pH 7.5) before performing assays in Tyrode's buffer. Test compounds were incubated with cells for 5 (Gαi) or 15 (EEs) minutes at 37° C. before addition of 200 nmol/L of the GPR84 agonist ZQ-16 (2-(Hexylthio)-6-hydroxy-4(3H)-pyrimidinone) for 5 minutes at room temperature (Gαi) or 30 minutes at 37° C. (EEs). The Rluc8 substrate coelenterazine 400A (Prolume, Lakeside, AZ) was added at a final concentration of 5 μmol/L and BRET readings were collected using an Infinite M1000 microplate reader (Tecan, Morrisville, NC). BRET^2 readings between Rluc8 and GFP10 or rGFP were collected by sequential integration of the signals detected in the 370 to 450 nm (Rluc8) and 510 to 540 nm (GFP10, rGFP) windows. The BRET signal was calculated as the ratio of light emitted by acceptor (GFP10, rGFP) over the light emitted by donor (Rluc8). The values were corrected to net BRET by subtracting the background BRET signal obtained in cells transfected with Rluc8 constructs alone. Ligand-promoted net BRET values were calculated by subtracting vehicle-induced net BRET from ligand-induced net BRET.
On the technique in general: Bioluminescence resonance energy transfer reports proximity on the nanometre scale.

Where only a bound is given, the exact number is not on record here.

T1 sequence (Q9NQS5 whole entry): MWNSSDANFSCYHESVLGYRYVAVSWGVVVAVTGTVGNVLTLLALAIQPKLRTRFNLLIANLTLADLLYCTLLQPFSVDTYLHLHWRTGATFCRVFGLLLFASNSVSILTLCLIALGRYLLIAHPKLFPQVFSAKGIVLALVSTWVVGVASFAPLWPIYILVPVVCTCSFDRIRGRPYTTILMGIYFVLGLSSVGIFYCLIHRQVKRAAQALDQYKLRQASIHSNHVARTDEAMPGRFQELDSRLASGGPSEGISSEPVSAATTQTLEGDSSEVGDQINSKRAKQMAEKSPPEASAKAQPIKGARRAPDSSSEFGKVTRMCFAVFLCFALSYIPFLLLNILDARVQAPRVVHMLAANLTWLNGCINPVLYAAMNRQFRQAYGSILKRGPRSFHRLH

The term inhibition denotes the share of the control response that was lost under treatment. Low readings indicate a response near the control, high ones a response far below the control. Take `Cc1cc(C#CC2CC2)ccc1-c1cn(Cc2nccs2)nn1` [Compound I-314]: the inhibition at 10 µM was 25 to 50%. As for `Cc1ccc(C#CC2CC2)cc1C1(c2cn(CC3CCCCO3)nn2)CC1` (stereo not drawn) [Compound I-679, 4-(1-(5-(cyclopropylethynyl)-2-methylphenyl)cyclopropyl)-1-((tetrahydro-2H-pyran-2-yl)methyl)-1H-1,2,3-triazole], the inhibition at 10 µM is over 75%.

Take `CN(C)Cc1cc(C#CC2CC2)ccc1-c1cn(CC2CCCCO2)nn1` (stereo not drawn) [Compound I-356]: the inhibition at 10 µM is 25 to 50%.

Compound `Cc1ccc(C#CC2CC2)nc1-c1cn(Cc2ncccn2)nn1` [Compound I-481] showed an inhibition at 2 µM of at most 25%.

Compound `Cc1cc(C#CC2CC2)ccc1-c1ccn(CC2CCCCO2)n1` (stereo not drawn) [Compound I-325] registered an inhibition at 10 µM of at most 25%. Take `COC(C)(c1cn(CC2CCCCO2)nn1)c1cc(C#CC2CC2)ccc1C` (stereo not drawn) [Compound I-680]: the inhibition at 10 µM lay within 50 to 75%.

By IC50 is commonly meant the concentration that gives 50% inhibition. A high value points to weaker potency. Compound `CN(C)c1cc(C#CC2CC2)cnc1-c1cn(CC2CCCCO2)nn1` (stereo not drawn) [Compound I-518] registered an inhibition at 10 µM of over 75% and an IC50 of 1000 to 3000 nM. The compound `C(#CC1CC1)c1csc(-c2cn(CC3CCCCO3)nn2)c1` (stereo not drawn) [Compound I-242] displayed an inhibition at 10 µM of at most 25%. On the same count and under the same terms, to `Cc1cc(C#CC2CC(F)(F)C2)cnc1-c1cn(CC2OCC(C)(C)CO2)nn1` [Compound I-653] belongs over 75%. As to `Clc1cc(C#CC2CC2)cnc1-c1cn(CC2OCC3(CCC3)O2)nn1` (stereo not drawn) [Compound I-806], the inhibition at 2 µM is over 75%. `Cc1cc(N2CCN(Cc3ccn(C)n3)CC2)ccc1-c1cn(CC2CCCCO2)nn1` (stereo not drawn) [Compound I-582] displayed an inhibition at 10 µM of over 75%.

In turn, `Cc1cc(N2CCCC(CO)C2)ccc1-c1cn(CC2CCCCO2)nn1` (stereo not drawn) [Compound I-446] showed an inhibition at 10 µM of 25 to 50%.

Take `COC(c1cn(CC2OCC(C)(C)CO2)nn1)c1cc(C#CC2CC2)c(F)cc1C` (stereo not drawn) [Compound I-724]: the inhibition at 2 µM was over 75% and the IC50 is at most 300 nM. Consider `Cc1cc(C#CC2CC2)cnc1-c1cn(CC2OCCCO2)nn1` [Compound I-414], for which the inhibition at 10 µM lay in the range of 50 to 75%. Consider `Cc1cc(N2CC3(CN(C)C3)C2)ccc1-c1cn(CC2CCCCO2)nn1` (stereo not drawn) [Compound I-145], for which the inhibition at 10 µM is at most 25%. The compound `C(#CC1CC1)c1ccc(-c2cn(C[C@H]3CCCCO3)nn2)cc1` [Compound I-24] returned an inhibition at 25 µM of over 75% and a half-maximal inhibitory concentration (IC50) of over 3000 nM. In turn, `Cc1cc(C#CC2CC2)ccc1-n1cc(CC2CCOCC2)nn1` [Compound I-269] showed an inhibition at 10 µM of at most 25%.

As for `Cc1cc(N2CCN(Cc3ccccn3)CC2)ccc1-c1cn(CC2CC(C)(C)O2)nn1` (stereo not drawn) [Compound I-561], the inhibition at 10 µM was over 75% and the IC50 is over 3000 nM. As to `Cc1cc(N2CC(C)(CO)C2)cnc1-c1cn(CC2OCC(C)(C)CO2)nn1` [Compound I-595], the inhibition at 10 µM was over 75%.

The compound `Cc1cc(C#CC2CC2)ccc1-c1cn(CC2CCC(C)(C)O2)nn1` (stereo not drawn) [Compound I-164] yielded an inhibition at 10 µM of over 75% and an IC50 of 1000 to 3000 nM. `C(#CC1CC1)c1ccc(-c2nnn(CC3CCCCO3)n2)cc1` (stereo not drawn) [Compound I-1]: the inhibition at 25 µM is at most 25%. Compound `Cc1cc(N2CCN(Cc3ccccn3)CC2)ccc1-c1cn(CC2OCC(C)(C)O2)nn1` (stereo not drawn) [Compound I-603] displayed an inhibition at 10 µM of 50 to 75% and an IC50 of over 3000 nM. The compound `Cc1cc(C#CC2CC(F)(F)C2)ccc1-c1cn(CC2CCCCO2)nn1` (stereo not drawn) [Compound I-640] had an inhibition at 10 µM of over 75%.

In turn, `Cc1cc(N2CC3(CCCN3C)C2)ccc1-c1cn(CC2CCCCO2)nn1` (stereo not drawn) [Compound I-148] came in with an inhibition at 10 µM of 50 to 75%. The compound `Cc1cc(N2CC(NS(C)(=O)=O)C2)ccc1-c1cn(CC2CCCCO2)nn1` (stereo not drawn) [Compound I-486] returned an inhibition at 10 µM of at most 25%. `Cc1cc(N2CC3(CCN(Cc4ccccc4)C3)C2)ccc1-c1cn(CC2CCCCO2)nn1` (stereo not drawn) [Compound I-169] yielded an inhibition at 10 µM of at most 25%. On the same count and under the same terms, the value for `CC1(C)CN(c2ccc(-c3cn(CC4CCCCO4)nn3)c(Cl)c2)C1` (stereo not drawn) [Compound I-254] was 25 to 50%. In turn, `Cc1cc(N2CCC(N(C)Cc3ccccc3)CC2)ccc1-c1cn(CC2CCCCO2)nn1` (stereo not drawn) [Compound I-141] yielded an inhibition at 10 µM of at most 25%.

As for `O=S1(=O)CCC(Cn2cc(-c3ccc(C#CC4CC4)cc3)nn2)CC1` [Compound I-56], the inhibition at 25 µM was at most 25%.

With `CC(c1cn(CC2CCCCO2)nn1)c1cccc(C#CC2CC2)n1` (stereo not drawn) [Compound I-416], the inhibition at 10 µM fell in the range of 25 to 50%. In turn, `Cc1cc(N2CCN(Cc3ccccn3)CC2=O)ccc1-c1cn(CC2OCC(C)(C)CO2)nn1` [Compound I-751] gave an inhibition at 10 µM of 25 to 50%.

The compound `C(#CC1CC1)c1ccc(-c2cn(CC3CCc4ccccc4O3)nn2)cc1` (stereo not drawn) [Compound I-41] gave an inhibition at 25 µM of at most 25%. Take `Cc1cc(C#CCN2CC(C)(C)C2)cnc1-c1cn(C[C@H]2CCCCO2)nn1` [Compound I-284]: the inhibition at 10 µM is over 75%.

`CC(C)OCC1(C)CN(c2ccc(-c3cn(CC4OCC(C)(C)CO4)nn3)c(N(C)C)c2)C1` [Compound I-754]: the inhibition at 10 µM is over 75% and the concentration for half-maximal inhibition (IC50) lay within 300 to 1000 nM. In the case of `Cc1cc(N2CC3(CCNCC3)C2)ccc1-c1cn(CC2CCCCO2)nn1` (stereo not drawn) [Compound I-154], the inhibition at 10 µM lay in the range of 25 to 50%. `CN(C)c1cc(C#N)ccc1-c1cn(CC2OCC(C)(C)CO2)nn1` [Compound I-733, 4-(1-((5,5-dimethyl-1,3-dioxan-2-yl)methyl)-1H-1,2,3-triazol-4-yl)-3-(dimethylamino)benzonitrile] showed an inhibition at 10 µM of 50 to 75%. For `Cc1cc(C#CC2CC2)ccc1-c1cn(CC2CCC(F)(F)CO2)nn1` (stereo not drawn) [Compound I-207], the inhibition at 10 µM is 50 to 75%.

`Cc1ccc(C#CC2CC2)cc1S(=O)(=O)c1cn(CC2OCC(C)(C)CO2)nn1` [Compound I-783, 4-((5-(cyclopropylethynyl)-2-methylphenyl)sulfonyl)-1-((5,5-dimethyl-1,3-dioxan-2-yl)methyl)-1H-1,2,3-triazole] came in with an inhibition at 10 µM of at most 25%.

As for `CN(C)c1cc(N2CC(C)(CO)C2)ccc1-c1cn(CC2OCC3(CCC3)O2)nn1` (stereo not drawn) [Compound I-728], the inhibition at 10 µM is over 75%.

Compound `CC(c1cncc(C#CC2CC2)c1)c1cn(CC2CCCCO2)nn1` (stereo not drawn) [Compound I-426] displayed an inhibition at 10 µM of 25 to 50%. The compound `Cc1cc(C#CC2CC2)ccc1-n1cc(CN2CCCCC2)nn1` [Compound I-296] displayed an inhibition at 25 µM of at most 25%. For the compound `Cc1cc(C#CCN2CC(C)(C)C2)cnc1-c1cn(Cc2ncccn2)nn1` [Compound I-473], the inhibition at 10 µM is at most 25%. Still for that read-out and setting: the value for `Cc1cc(N2CCN(CC3CC4CCN3CC4)CC2)ccc1-c1cn(CC2CCCCO2)nn1` (stereo not drawn) [Compound I-657] was at most 25%; that for `COC(=O)NCC#Cc1ccc(-c2cn(CC3CCCCO3)nn2)c(C)c1` (stereo not drawn) [Compound I-607] was 25 to 50%.

With `CC(c1ccc(C#CC2CC2)cc1)c1cn(CC2CCCCO2)nn1` (stereo not drawn) [Compound I-313], the inhibition at 10 µM was in the range of 50 to 75%. The compound `Cc1cc(N2CC(C)(OCc3ccccn3)C2)c(F)cc1-c1cn(CC2CCCCO2)nn1` (stereo not drawn) [Compound I-731] yielded an inhibition at 10 µM of over 75% and a half-maximal inhibitory concentration (IC50) of 300 to 1000 nM.

These data come from patent US12617777B2, “GPR84 antagonists and uses thereof” (Liminal BioSciences Limited, priority 2021, dated 2026).
